Assay results published in publication doi:10.1101/2021.04.08.439011v1 (biorxiv, 2021).
Read-outs that look alike come from different tables or passages of the source.

What was measured:
[1] = target: ABL1(T315I) (Homo sapiens, UniProt P00519, T315I); conditions: 0.1 µM, binder
[2] = target: ABL2 (Homo sapiens, UniProt P42684); conditions: 0.1 µM; binder
[3] = target: BIKE (Homo sapiens, UniProt Q9NSY1); conditions: 0.1 µM; binder
[4] = target: CAMK2B (Homo sapiens, UniProt Q13554); conditions: 0.1 µM; binder
[5] = target: CAMK2G (Homo sapiens, UniProt Q13555); conditions: 0.1 µM; binder
[6] = target: CDC2L2 (Homo sapiens, UniProt Q9UQ88); conditions: 0.1 µM; binder
[7] = target: CHEK1 (Homo sapiens, UniProt O14757); conditions: 0.1 µM; binder
[8] = target: CSNK1E (Homo sapiens, UniProt P49674); conditions: 0.1 µM; binder
[9] = target: CSNK1G1 (Homo sapiens, UniProt Q9HCP0); conditions: 0.1 µM; binder
[10] = target: DMPK2 (Homo sapiens, UniProt Q6DT37); conditions: 0.1 µM; binder
[11] = target: FGFR3 (Homo sapiens, UniProt P22607); conditions: 0.1 µM; binder
[12] = target: GAK (Homo sapiens, UniProt O14976); conditions: 0.1 µM; binder
[13] = target: IGF1R (Homo sapiens, UniProt P08069); conditions: 0.1 µM; binder
[14] = target: LIMK2 (Homo sapiens, UniProt P53671); conditions: 0.1 µM; binder
[15] = target: LOK (Homo sapiens, UniProt O94804); conditions: 0.1 µM; binder
[16] = target: MARK1 (Homo sapiens, UniProt Q9P0L2); conditions: 0.1 µM; binder
[17] = target: MEK2 (Homo sapiens, UniProt P36507); conditions: 0.1 µM; binder
[18] = target: MYLK3 (Homo sapiens, UniProt Q32MK0); conditions: 0.1 µM; binder
[19] = target: NEK6 (Homo sapiens, UniProt Q9HC98); conditions: 0.1 µM; binder
[20] = target: NIM1 (Homo sapiens, UniProt Q8IY84); conditions: 0.1 µM; binder
[21] = target: PIK3CA(E542K) (Homo sapiens, UniProt P42336, E542K); conditions: 0.1 µM; binder
[22] = target: PIP4K2C (Homo sapiens, UniProt Q8TBX8); conditions: 0.1 µM; binder
[23] = target: PLK1 (Homo sapiens, UniProt P53350); conditions: 0.1 µM; binder
[24] = target: STK39 (Homo sapiens, UniProt Q9UEW8); conditions: 0.1 µM; binder
[25] = target: TLK1 (Homo sapiens, UniProt Q9UKI8); conditions: 0.1 µM; binder
[26] = target: TNIK (Homo sapiens, UniProt Q9UKE5); conditions: 0.1 µM; binder
[27] = target: TNK1 (Homo sapiens, UniProt Q13470); conditions: 0.1 µM; binder
[28] = target: TYRO3 (Homo sapiens, UniProt Q06418); conditions: 0.1 µM; binder
[29] = target: YSK1 (Homo sapiens, UniProt O00506); conditions: 0.1 µM; binder
[30] = target: ZAK (Homo sapiens, UniProt Q9NYL2); conditions: 0.1 µM; binder
[31] = target: p38-beta (Homo sapiens, UniProt Q15759); conditions: 0.1 µM; binder

CAMK2B, sequence (Q13554 whole entry): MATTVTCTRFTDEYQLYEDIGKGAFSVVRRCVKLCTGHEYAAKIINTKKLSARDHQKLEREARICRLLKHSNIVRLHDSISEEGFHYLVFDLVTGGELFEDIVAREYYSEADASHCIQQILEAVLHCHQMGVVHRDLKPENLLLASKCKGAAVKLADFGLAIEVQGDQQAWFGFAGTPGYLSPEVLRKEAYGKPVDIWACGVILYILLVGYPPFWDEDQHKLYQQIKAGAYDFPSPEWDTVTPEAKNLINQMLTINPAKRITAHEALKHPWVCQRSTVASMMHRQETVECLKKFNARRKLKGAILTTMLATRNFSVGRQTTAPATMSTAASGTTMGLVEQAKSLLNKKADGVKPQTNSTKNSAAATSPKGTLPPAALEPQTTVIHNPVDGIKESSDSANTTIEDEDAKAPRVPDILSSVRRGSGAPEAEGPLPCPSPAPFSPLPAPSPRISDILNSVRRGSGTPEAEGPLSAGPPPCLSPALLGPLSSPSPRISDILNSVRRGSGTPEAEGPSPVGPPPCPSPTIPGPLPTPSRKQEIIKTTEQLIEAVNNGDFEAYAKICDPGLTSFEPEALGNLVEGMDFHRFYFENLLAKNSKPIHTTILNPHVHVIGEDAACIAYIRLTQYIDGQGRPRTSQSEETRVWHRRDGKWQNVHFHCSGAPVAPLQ
CSNK1G1, sequence (Q9HCP0 whole entry): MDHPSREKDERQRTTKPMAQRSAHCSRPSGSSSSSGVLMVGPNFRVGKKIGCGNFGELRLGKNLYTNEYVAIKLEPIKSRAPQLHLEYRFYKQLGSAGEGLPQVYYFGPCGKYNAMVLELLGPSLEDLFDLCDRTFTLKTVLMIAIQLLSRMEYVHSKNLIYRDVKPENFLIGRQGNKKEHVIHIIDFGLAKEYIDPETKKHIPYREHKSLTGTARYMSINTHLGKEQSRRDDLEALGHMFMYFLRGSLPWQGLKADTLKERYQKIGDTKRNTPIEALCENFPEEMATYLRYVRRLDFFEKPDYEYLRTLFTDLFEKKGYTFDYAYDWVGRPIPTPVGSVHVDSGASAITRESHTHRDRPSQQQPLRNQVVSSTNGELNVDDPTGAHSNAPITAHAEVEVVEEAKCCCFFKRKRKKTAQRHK
CSNK1E, sequence (P49674 whole entry): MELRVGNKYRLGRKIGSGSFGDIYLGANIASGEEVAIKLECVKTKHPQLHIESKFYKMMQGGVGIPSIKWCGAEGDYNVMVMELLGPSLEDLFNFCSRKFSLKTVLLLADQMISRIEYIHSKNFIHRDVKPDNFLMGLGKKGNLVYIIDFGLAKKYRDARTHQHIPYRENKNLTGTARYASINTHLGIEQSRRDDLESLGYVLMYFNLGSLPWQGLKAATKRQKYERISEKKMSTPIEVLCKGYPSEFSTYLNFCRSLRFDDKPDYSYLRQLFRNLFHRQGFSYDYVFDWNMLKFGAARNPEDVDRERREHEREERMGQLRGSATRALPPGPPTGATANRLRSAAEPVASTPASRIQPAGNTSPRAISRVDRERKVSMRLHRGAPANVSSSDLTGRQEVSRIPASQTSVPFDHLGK
LIMK2, sequence (P53671 whole entry): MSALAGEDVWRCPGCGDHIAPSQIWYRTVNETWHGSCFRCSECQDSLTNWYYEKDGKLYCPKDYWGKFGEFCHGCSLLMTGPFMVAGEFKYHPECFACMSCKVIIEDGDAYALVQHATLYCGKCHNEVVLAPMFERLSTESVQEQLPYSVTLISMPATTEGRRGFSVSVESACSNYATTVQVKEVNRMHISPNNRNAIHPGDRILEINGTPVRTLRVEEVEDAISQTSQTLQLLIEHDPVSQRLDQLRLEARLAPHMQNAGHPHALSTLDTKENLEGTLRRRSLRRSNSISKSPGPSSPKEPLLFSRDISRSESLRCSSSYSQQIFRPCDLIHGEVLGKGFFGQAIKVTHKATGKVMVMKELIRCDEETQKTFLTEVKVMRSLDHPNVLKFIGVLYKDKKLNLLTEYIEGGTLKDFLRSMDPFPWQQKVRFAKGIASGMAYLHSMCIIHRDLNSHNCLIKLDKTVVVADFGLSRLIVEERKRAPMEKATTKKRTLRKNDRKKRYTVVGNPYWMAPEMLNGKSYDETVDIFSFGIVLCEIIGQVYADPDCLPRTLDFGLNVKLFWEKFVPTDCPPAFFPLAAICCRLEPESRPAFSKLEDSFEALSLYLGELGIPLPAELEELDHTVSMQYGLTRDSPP
CAMK2G, sequence (Q13555 whole entry): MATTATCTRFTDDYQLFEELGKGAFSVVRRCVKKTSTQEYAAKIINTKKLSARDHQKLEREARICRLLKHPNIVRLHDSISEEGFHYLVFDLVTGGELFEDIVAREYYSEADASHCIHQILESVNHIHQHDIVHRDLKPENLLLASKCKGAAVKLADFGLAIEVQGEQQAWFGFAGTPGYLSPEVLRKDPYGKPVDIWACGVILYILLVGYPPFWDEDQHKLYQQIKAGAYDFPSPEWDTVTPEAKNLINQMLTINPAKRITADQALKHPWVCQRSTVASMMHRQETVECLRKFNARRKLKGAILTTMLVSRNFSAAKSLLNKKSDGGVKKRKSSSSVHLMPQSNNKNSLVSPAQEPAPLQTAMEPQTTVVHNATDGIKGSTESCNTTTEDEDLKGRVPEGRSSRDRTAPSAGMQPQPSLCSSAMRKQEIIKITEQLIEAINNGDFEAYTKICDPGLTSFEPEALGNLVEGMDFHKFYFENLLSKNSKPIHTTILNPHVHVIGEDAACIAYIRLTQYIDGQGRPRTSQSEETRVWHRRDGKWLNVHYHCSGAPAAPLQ
MYLK3, sequence (Q32MK0 whole entry): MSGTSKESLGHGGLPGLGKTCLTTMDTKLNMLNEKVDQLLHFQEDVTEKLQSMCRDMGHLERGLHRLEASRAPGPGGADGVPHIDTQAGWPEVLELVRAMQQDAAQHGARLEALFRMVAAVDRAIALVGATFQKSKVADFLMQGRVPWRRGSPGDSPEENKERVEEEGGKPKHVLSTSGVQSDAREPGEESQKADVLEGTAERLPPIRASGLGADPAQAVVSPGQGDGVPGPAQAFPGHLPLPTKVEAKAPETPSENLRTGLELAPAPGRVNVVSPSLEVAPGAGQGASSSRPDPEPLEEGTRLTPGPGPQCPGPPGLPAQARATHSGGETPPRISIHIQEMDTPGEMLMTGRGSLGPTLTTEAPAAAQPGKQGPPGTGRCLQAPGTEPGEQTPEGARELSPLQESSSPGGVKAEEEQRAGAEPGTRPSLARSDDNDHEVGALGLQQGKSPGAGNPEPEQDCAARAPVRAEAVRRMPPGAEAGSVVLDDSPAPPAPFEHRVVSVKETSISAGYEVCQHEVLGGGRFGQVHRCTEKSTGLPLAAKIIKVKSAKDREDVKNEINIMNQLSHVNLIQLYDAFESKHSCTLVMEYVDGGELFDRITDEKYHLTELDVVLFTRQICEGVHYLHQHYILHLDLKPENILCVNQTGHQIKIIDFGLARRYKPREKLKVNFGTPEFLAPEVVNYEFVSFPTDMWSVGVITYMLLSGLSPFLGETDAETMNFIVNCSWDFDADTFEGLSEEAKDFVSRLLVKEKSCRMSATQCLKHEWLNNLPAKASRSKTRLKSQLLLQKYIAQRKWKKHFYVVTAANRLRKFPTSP
TNK1, sequence (Q13470 whole entry): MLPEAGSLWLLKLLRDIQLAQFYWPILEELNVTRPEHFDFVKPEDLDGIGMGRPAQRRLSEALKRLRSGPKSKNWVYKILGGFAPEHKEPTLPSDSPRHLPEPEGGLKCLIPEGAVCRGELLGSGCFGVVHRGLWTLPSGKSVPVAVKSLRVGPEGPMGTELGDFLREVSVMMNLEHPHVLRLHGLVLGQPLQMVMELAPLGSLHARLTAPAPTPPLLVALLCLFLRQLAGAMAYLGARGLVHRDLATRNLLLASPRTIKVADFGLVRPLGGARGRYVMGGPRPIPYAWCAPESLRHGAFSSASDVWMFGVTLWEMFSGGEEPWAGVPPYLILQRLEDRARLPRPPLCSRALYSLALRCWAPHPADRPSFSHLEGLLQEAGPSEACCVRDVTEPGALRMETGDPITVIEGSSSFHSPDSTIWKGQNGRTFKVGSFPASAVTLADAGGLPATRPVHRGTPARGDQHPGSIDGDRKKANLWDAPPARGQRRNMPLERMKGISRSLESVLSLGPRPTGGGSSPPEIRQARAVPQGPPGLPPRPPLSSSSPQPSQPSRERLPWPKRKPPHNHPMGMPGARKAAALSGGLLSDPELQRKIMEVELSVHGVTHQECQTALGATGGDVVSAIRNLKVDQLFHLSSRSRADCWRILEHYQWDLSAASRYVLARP
NIM1, sequence (Q8IY84 whole entry): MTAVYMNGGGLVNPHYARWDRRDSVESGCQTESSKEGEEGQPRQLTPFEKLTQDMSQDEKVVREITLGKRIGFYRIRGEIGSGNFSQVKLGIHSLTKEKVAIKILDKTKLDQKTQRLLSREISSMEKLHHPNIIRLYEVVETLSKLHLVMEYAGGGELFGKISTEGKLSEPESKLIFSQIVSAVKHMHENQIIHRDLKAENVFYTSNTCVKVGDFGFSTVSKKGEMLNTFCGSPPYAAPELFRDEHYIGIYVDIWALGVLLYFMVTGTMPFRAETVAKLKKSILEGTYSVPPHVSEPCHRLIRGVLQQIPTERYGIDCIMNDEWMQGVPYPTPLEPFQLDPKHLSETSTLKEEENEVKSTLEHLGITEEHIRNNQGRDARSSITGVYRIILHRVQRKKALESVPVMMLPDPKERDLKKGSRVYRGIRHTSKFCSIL
MEK2, sequence (P36507 whole entry): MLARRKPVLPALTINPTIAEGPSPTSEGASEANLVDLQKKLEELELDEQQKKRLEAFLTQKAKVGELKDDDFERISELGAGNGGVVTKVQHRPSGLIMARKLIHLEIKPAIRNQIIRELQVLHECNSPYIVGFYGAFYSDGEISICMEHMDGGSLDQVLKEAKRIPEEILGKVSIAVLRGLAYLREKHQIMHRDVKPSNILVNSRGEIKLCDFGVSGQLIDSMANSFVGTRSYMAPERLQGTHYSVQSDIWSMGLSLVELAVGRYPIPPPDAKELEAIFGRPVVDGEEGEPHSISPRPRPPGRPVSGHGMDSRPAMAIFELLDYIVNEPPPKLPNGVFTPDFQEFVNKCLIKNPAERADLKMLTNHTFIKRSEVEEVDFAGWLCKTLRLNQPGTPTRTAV

## CNc1ncc2cc(-c3ccc(-c4cccc(C)n4)cc3Cl)c(=O)n(C[C@H]3OC[C@H](N)CO3)c2n1 [compound 6, G-5555]
[1]; nonphosphorylated
  Percent Control: 90%
[1]; phosphorylated
  Percent Control: 100%
[2]
  Percent Control: 100%
[3]
  Percent Control: 100%
[4]
  Percent Control: 100%
[5]
  Percent Control: 100%
[6]
  Percent Control: 100%
[7]
  Percent Control: 100%
[8]
  Percent Control: 100%
[9]
  Percent Control: 100%
[10]
  Percent Control: 89%
[11]
  Percent Control: 100%
[12]
  Percent Control: 51%
[13]
  Percent Control: 100%
[14]
  Percent Control: 100%
[15]
  Percent Control: 37%
[16]
  Percent Control: 100%
[17]
  Percent Control: 33%
[18]
  Percent Control: 74%
[19]
  Percent Control: 100%
[20]
  Percent Control: 89%
[21]
  Percent Control: 89%
[22]
  Percent Control: 79%
[23]
  Percent Control: 82%
[24]
  Percent Control: 100%
[25]
  Percent Control: 100%
[26]
  Percent Control: 100%
[27]
  Percent Control: 100%
[28]
  Percent Control: 96%
[29]
  Percent Control: 40%
[30]
  Percent Control: 97%
[31]
  Percent Control: 97%
